According to PubChem BioAssay AID1159559 (GlaxoSmithKline (GSK), 2015):
The source made the active and inactive calls.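 How the source made its calls: active means compounds whose IC50 against parasite growth in infected mouse cells is below 50000 nM; inactive means the rest.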

These compounds were tested on T. cruzi Tulahuen in NIH-3T3, beta-gal fluorescence, 4 d (assay: T. cruzi intracellular growth inhibition, cell-based (AID 1159559)).

| SMILES | IC50 |
| --- | --- |
| O=C(CN(Cc1ccccn1)Cc1ccccn1)NC1Cc2ccccc2C1 | 5000 nM |
| O=c1oc2ccccc2n1C1CCN(Cc2ccccc2-c2cccnc2)CC1 | 500 nM |
| CCCNC(=O)Nc1cccc(-c2nc3ncccc3o2)c1 | 2500 nM |
| COc1cc(-c2nc(N3CCOCC3)sc2-c2ccnc(NC3CCOCC3)n2)ccc1Cl | 250 nM |
| O=[N+]([O-])c1cccc(Nc2cncc(-c3ccccc3CO)c2)c1 | 320 nM |
| CCc1c(C)nc(-n2nc(C)cc2NC(=O)COc2ccccc2F)[nH]c1=O | 630 nM |
| CC(C)(C)CC(=O)NCCc1csc(-c2ccc(F)cc2)n1 | 1300 nM |
| CCCN1CCN(Cc2ccc(S(=O)(=O)Nc3cccc(C)c3)cc2)CC1 | 790 nM |
| N#Cc1nc(C=Cc2ccccc2)oc1NCc1cccnc1 | 250 nM |
| O=C(N1CCc2ccccc2CC1)C1(C(=O)N2CCC(n3c(=O)[nH]c4ncccc43)CC2)CC1 | 630 nM |
| Cc1ccc(Nc2nc(-c3ccccn3)cc(N3CCCC(O)C3)n2)cc1 (centres undefined) | 500 nM |
| COc1ccc(CN2CCCCC2c2nc(-c3cccnc3)no2)cc1 (centres undefined) | 790 nM |
| COc1cc(Cl)c(C)cc1NC(=O)c1ccc([N+](=O)[O-])s1 | 630 nM |
| Cc1cc2nc(N3CC[C@H]3C(N)=O)nc(Nc3cc(C4CC4)[nH]n3)c2s1 | 6300 nM |
| N#CN1CC[C@@H](NC(=O)Nc2ccccc2Oc2ccccc2)C1 | 5000 nM |
| CCc1cccc(CC)c1-n1c(SCC(=O)N2CC(=O)Nc3ccccc32)nnc1-c1cccnc1 | 25000 nM |
| O=C(CN(c1cccc(C(F)(F)F)c1)S(=O)(=O)c1ccc(Cl)cc1)NCc1ccc(F)c(F)c1 | 790 nM |
| O=C(Nc1nc(-c2ccc(F)cc2)cs1)c1ccc([N+](=O)[O-])s1 | 200 nM |
| Cc1cc2cc(CNc3ccc4c(c3)OCO4)c(=O)n(CCO)c2cc1C | 630 nM |
| COc1ncc(-c2ccc3nccc(-c4ccncc4)c3c2)cc1NS(C)(=O)=O | 1600 nM |
| Cc1cc(NC(=O)C2CC2)ccc1OC1CCN(Cc2ccco2)CC1 | 16000 nM |
| CN(CC1CCCO1)S(=O)(=O)c1ccc(C(=O)Nc2nc(-c3ccccn3)cs2)cc1 (centres undefined) | 1600 nM |

| SMILES | IC50 |
| --- | --- |
| O=C(NNC(=O)c1ccccn1)c1ccc(-c2ccccc2)cc1 | 1600 nM |
| CCCc1nc2nc(N)nc(N)c2cc1CC | 320 nM |
| Cc1ccc(S(=O)(=O)Nc2ccc(CN3CCN(C(=O)c4cccc(C#N)c4)CC3)cc2)cc1 | 500 nM |
| CN(Cc1nnnn1C1CCN(Cc2ccc(-n3ccnc3)cc2)CC1)c1ccc(F)cc1F | 320 nM |
| O=c1cc(NCCCNCc2c[nH]c3ccc(Br)cc23)[nH]c2ccccc12 | > 50000 nM (inactive) |
| COc1ccc(S(=O)(=O)Nc2ccccc2OC)cc1NC(=O)CCCc1c[nH]c2ccccc12 | 1600 nM |
| CNC(=O)C1Cc2ccccc2N1C(=O)Cc1ccccc1 (centres undefined) | > 50000 nM (inactive) |
| COc1ccc(C2CC(c3ccccc3Cl)=NN2C(=O)CNC(=O)C2CCC2)cc1 (centres undefined) | 2500 nM |
| O=C(CCc1ccc(-c2ccccc2)o1)N1CCN(c2ccc(O)cc2)CC1 | 3200 nM |
| COc1ccc(NS(=O)(=O)c2cccc(NC(=O)c3cc(F)cc(F)c3)c2)cc1 | 790 nM |
| CN(C)CCOc1ccc(N2CCN(S(=O)(=O)c3ccc(Cl)cc3)CC2)cc1 | 630 nM |
| CC(=O)Nc1ccc(Nc2nccc(-c3cnn4ncccc34)n2)cc1C(F)(F)F | 50 nM |
| O=S(=O)(NCC(c1cccnc1)N1CCN(c2ccccc2F)CC1)c1ccc(F)cc1 (centres undefined) | 500 nM |
| CCN(CC)S(=O)(=O)c1ccc(C)c(NC(=O)c2cc(Cl)c3c(c2)OCO3)c1 | 6300 nM |
| CC(C)CC(=O)Nc1cc(C2CC2)nn1-c1nc2c(c(=O)[nH]1)CCCC2 | 790 nM |
| CC(=O)NC1(c2ccccc2)CCN(CC(=O)Nc2ccccc2-c2ccccc2)CC1 | 1300 nM |
| Cc1ccc(S(=O)(=O)Nc2ccc(CN3CCN(C(=O)c4cccc(C)c4)CC3)cc2)cc1 | 500 nM |
| Cc1c(Nc2cc(C3CC3)[nH]n2)ccc(C#N)c1Cl | 2500 nM |
| CN(C)c1ccc(N)cc1CN(CC1CCCO1)S(C)(=O)=O (centres undefined) | > 50000 nM (inactive) |
| O=C(CSc1nnc(-c2ccc3c(c2)OCO3)o1)N(Cc1ccco1)CC(F)(F)F | 10000 nM |
| CCOc1ccc(N(C)S(=O)(=O)c2ccc3[nH]cc(C(=O)NC4CCCC4)c(=O)c3c2)cc1 | 7900 nM |
| NC(=O)c1ccccc1Nc1nc(NC2CCCCC2)nc2[nH]ccc12 | 1000 nM |

| SMILES | IC50 |
| --- | --- |
| COCCn1c(-c2ccccc2)cnc1NCc1ccccc1OC | 13000 nM |
| CC(C)Oc1cccc(N2CCC(C(=O)N3CCCN(C(C)C)CC3)CC2)c1 | 1300 nM |
| CC(=Cc1ccccc1)CN1CCC(=O)N(Cc2cccnc2)CC1 | 250 nM |
| CNc1cncc(C2CCCN2C(=O)Cc2ccc3ccccc3c2)n1 (centres undefined) | 79 nM |
| O=S(=O)(c1cccc(CSc2nnc(-c3ccc4c(c3)OCO4)o2)c1)N1CCOCC1 | 200 nM |
| CCN(Cc1nc2ccc(C(=O)N3CCN(c4ncccn4)CC3)cc2[nH]1)C1CCCc2cccnc21 (centres undefined) | 1300 nM |
| Cc1cccc(N2CCCN(Cc3c[nH]c4ccccc34)CC2)n1 | 320 nM |
| CC1=C(C(=O)Nc2ccc(Cl)cc2)C(c2ccncc2)n2ncc(C(=O)Nc3ccccc3)c2N1 (centres undefined) | 20 nM |
| Nc1cc(-c2ccc3ncnc(N4CCOCC4)c3c2)cnc1N | 1600 nM |
| Cc1ccc2c(c1)SC(C(=O)Nc1n[nH]c(-c3ccccn3)n1)C2 (centres undefined) | 5000 nM |
| CN(Cc1nc2c(C(=O)N3CCN(Cc4ccccc4)CC3)cccc2[nH]1)C1CCCc2cccnc21 (centres undefined) | 790 nM |
| COc1cccc(CN(C)Cc2nc(N)c3c(C)c(C)sc3n2)c1 | 6300 nM |
| Cn1c(CC(=O)NNC(=O)c2ccc3ccccc3n2)nc2ccccc21 | 3200 nM |
| C[C@@H](Oc1cc(-n2cnc3ccc(O[C@H]4CCNC4)cc32)sc1C(N)=O)c1ccccc1Cl | 3200 nM |
| O=C(c1cccc(Cl)c1Cl)N1CCn2c1nc(-c1ccncc1)cc2=O | 160 nM |
| Cc1nc(N2CCC(C(=O)N3CCC(O)(c4cccnc4)CC3)CC2)nc2ccc(C(C)C)cc12 | 1600 nM |
| Cc1[nH]n2c(=O)c3c(nc2c1-c1ccc(Cl)cc1)CCCC3 | 400 nM |
| O=C(CCCn1cnc([N+](=O)[O-])n1)Nc1cccc(Cl)c1 | 200 nM |
| COc1ccccc1-n1c(SCC(=O)Nc2ccc3c(c2)OCO3)nc2c(c1=O)SCC2 | 40000 nM |
| O=C(c1ccc(OCCCc2cnc[nH]2)cc1)C1CC1 | 320 nM |
| O=C(NCc1ccc(Cl)cc1)C1CN(C(=O)c2ccc(F)cc2)CCS1 (centres undefined) | 25000 nM |
| O=C(CC1(O)C(=O)N(Cc2cccs2)c2ccc(Br)cc21)c1cccnc1 (centres undefined) | 5000 nM |

| SMILES | IC50 |
| --- | --- |
| O=C(Nc1ccc(Br)c(Cl)c1)Nc1ccc2c(c1)OCO2 | 2500 nM |
| CN(Cc1nc2ccccc2s1)C(=O)C=Cc1cc2ccccc2o1 | 630 nM |
| CCn1nccc1CN(C)C(=O)C=Cc1ccc(Cl)cc1 | 200 nM |
| O=C(Cn1cnc2c(-c3ccccc3)csc2c1=O)N1CCCCC1 | 3200 nM |
| CCOc1ccc(Nc2ccc(S(=O)(=O)N3CCN(C)CC3)cc2[N+](=O)[O-])cc1OCC | 7900 nM |
| Cc1c(C#N)c([N+](=O)[O-])nn1Cc1cccc(Cl)c1Cl | 200 nM |
| CN(C)S(=O)(=O)c1ccc(-c2cnc(N)c(-c3nc4ccc(F)cc4[nH]3)c2)cc1 | 1300 nM |
| Cc1c(CNC(=O)c2ccc(Cn3cc(Cl)c([N+](=O)[O-])n3)cc2)cnn1C | 1000 nM |
| O=C(Cc1ccc2c(c1)CCC2)Nc1n[nH]c(-c2ccccn2)n1 | 10000 nM |
| NC(=O)c1cc(F)ccc1Nc1nc(NC2CCC(O)CC2)ncc1Cl (centres undefined) | 4000 nM |
| C=CCOCC1Cn2nc([N+](=O)[O-])nc2O1 (centres undefined) | 500 nM |
| CCN(CC)c1ncc(C(=O)c2ccc([N+](=O)[O-])o2)s1 | 4000 nM |
| O=C(Nc1nc2ccccc2[nH]1)c1c(O)c2cccc3c2n(c1=O)CC3 | 20000 nM |
| CCN(CC)c1nc(N(C)C)nc2c1CN(Cc1ccccc1)CC2 | 6300 nM |
| C=CCN(Cc1cccs1)C(=O)CSc1nnc(-c2ccc3c(c2)OCO3)o1 | 6300 nM |
| O=C(NC(c1ccc(Cl)cc1)c1cnccn1)C1CCN(C(=O)Nc2cccc(C(F)(F)F)c2)CC1 (centres undefined) | 630 nM |
| O=C(NCc1nnc2n1CCCCC2)c1ccc(-c2ccc(F)cc2)o1 | 1300 nM |
| COc1ccc([N+](=O)[O-])cc1NC(=O)c1cc(Cl)ccc1O | 32000 nM |
| O=C1CSC(c2cccnc2)N1c1ccc(Cl)cc1Cl (centres undefined) | 63 nM |
| CCN(Cc1cccs1)C(=O)CSc1nnc(-c2ccc3c(c2)OCO3)o1 | 4000 nM |
| COc1ccc(C(=O)Nc2cc(C(F)(F)F)ccc2N2CCOCC2)c(OC)c1 | 1000 nM |
| O=C(Nc1cccc(Cl)c1)Nc1ccc([N+](=O)[O-])cc1Cl | 1300 nM |

| SMILES | IC50 |
| --- | --- |
| NCc1ccc2c(Cl)cc(Cl)c(O)c2n1 | 2500 nM |
| CC(C)CC(=O)NC(c1cccs1)c1ccc2cccnc2c1O (centres undefined) | 1600 nM |
| CN(C)c1ncc(-c2cncn2CCOc2ccc(Cl)cc2)cn1 | 200 nM |
| N#Cc1cccc(CNc2ccc(-c3cnn(CC4CC4)c(=O)c3C#N)cc2)c1 | 5000 nM |
| O=C(N[C@H](CO)c1ccccc1)c1ccc(-c2c[nH]c3nccc(C(F)(F)F)c23)s1 | 7900 nM |
| O=C(COc1ncnc2cc([N+](=O)[O-])ccc12)NC(=O)NC1CCCCC1 | 1300 nM |
| O=c1cc(NCCCNC2CCOc3c(I)cc(Cl)cc32)[nH]c2ccccc12 (centres undefined) | 790 nM |
| CC(=O)Nc1ccc(-c2ccnc(Nc3cccc(C#N)c3)n2)cc1 | 6300 nM |
| O=C(COc1nn(-c2ccccc2)c2ncccc12)NCc1ccccc1 | 13000 nM |
| NS(=O)(=O)c1ccc(Nc2ncc3cccc(OC4CCNCC4)c3n2)cc1 | 1600 nM |
| N#Cc1cccc(Nc2nccc(N3CCC(NS(=O)(=O)c4cccc(C#N)c4)CC3)n2)c1 | 1600 nM |
| CCOc1ccc(CN(C)Cc2nc(N)nc(Nc3ccc(C)cc3)n2)cc1 | 6300 nM |
| Cc1cc(NC(=O)c2ccc([N+](=O)[O-])s2)ccc1Br | 250 nM |
| Fc1ccc(OC2CC(NCc3cccc4cn[nH]c34)C2)cc1C(F)(F)F (centres undefined) | 790 nM |
| Cc1ccc2sc(NC(=O)Cn3cnc([N+](=O)[O-])n3)nc2c1 | 1300 nM |
| CS(=O)(=O)c1cccc(-c2cnc(N)c3c(-c4ccc(CO)cc4)csc23)c1 | 790 nM |
| COCc1cnc2c(c1SCc1c(F)cccc1Cl)c(=O)n(C)c(=O)n2C | > 50000 nM (inactive) |
| c1ccc(CCNCc2cncc3nc(-c4cnccn4)n(C4CCCCC4)c23)cc1 | 320 nM |
| Cc1cc(NC(=O)C2CCCCC2)n(-c2nc3c(c(=O)[nH]2)CCC3)n1 | 320 nM |
| Cc1nc2nc(C)c(Cc3ccc(C(C)C)cc3)c(=O)n2[nH]1 | 500 nM |
| CC(C)N(C(=O)CN1C(=O)C(N)C(=O)N(c2ccccc2)c2ccccc21)c1ccccc1 (centres undefined) | 320 nM |
